Assay results as given in patent US8791268B2, “Vanilloid receptor ligands, pharmaceutical compositions containing them, process for making them, and use thereof for treating pain and other conditions” (Gruenenthal GmbH, priority 2007, dated 2014).

Tests used:
Type in all cases: cell-based
[1] = molecular target: vanilloid receptor 1 (VR1/TRPV1) (Rattus norvegicus (Rat), UniProt O35433); assay: FLIPR Ca2+ influx assay on rat dorsal root ganglia cells, capsaicin stimulus (Pharmacological Method I)
Chain of vanilloid receptor 1 (VR1/TRPV1) (O35433 whole entry): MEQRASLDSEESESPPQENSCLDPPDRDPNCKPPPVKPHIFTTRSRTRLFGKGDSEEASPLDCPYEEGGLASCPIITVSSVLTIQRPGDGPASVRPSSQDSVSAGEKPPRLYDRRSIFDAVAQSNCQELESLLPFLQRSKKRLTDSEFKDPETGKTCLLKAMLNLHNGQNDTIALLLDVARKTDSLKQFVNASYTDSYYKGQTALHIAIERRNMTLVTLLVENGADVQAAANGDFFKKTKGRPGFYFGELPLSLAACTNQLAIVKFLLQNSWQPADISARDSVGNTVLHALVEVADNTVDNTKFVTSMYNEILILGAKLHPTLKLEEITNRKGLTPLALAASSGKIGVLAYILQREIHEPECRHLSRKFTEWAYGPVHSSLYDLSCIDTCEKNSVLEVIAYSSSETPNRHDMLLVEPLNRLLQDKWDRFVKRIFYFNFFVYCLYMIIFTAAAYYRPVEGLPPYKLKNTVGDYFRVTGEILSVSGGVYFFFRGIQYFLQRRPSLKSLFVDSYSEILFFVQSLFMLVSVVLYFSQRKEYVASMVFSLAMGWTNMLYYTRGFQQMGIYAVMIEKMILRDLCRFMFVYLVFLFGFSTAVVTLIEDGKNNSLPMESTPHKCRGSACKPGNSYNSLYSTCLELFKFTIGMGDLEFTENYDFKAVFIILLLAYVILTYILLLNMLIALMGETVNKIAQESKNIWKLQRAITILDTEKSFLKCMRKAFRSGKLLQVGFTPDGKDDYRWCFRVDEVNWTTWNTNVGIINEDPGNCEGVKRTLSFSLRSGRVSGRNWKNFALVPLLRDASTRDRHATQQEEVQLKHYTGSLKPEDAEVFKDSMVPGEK
Source text: I. Functional Investigation on the Vanilloid Receptor 1 (VR1/TRPV1 Receptor)
The agonistic or antagonistic action of the substances to be investigated on the vanilloid receptor 1 (VR1/TRPV1) of the species rat can be determined using the following assay. According to this assay, the Ca^2+ influx through the receptor channel is quantified with the aid of a Ca^2+-sensitive dye (Type Fluo-4, Molecular Probes Europe BV, Leiden Netherlands) in a fluorescent imaging plate reader (FLIPR, Molecular Devices, Sunnyvale, USA).
Complete medium: 50 mL of HAMS F12 Nutrient Mixture (Gibco Invitrogen GmbH, Karlsruhe, Germany) with
10% by volume of FCS (fetal calf serum, Gibco Invitrogen GmbH, Karlsruhe, Germany, heat-inactivated);
2 mM of L-glutamine (Sigma, Munich, Germany);
1% by weight of AA solution (antibiotics/antimycotics solution, PAA, Pasching, Austria)
and 25 ng/mL of Medium NGF (2.5 S, Gibco Invitrogen GmbH, Karlsruhe, Germany) Cell culture plate: Poly-D-lysine-coated, black 96-well plates with a clear bottom (96-well black/clear plate, BD Biosciences, Heidelberg, Germany) are additionally coated with laminin (Gibco Invitrogen GmbH, Karlsruhe, Germany) by diluting laminin to a concentration of 100 μg/mL with PBS (Ca—Mg-free PBS, Gibco Invitrogen GmbH, Karlsruhe, Germany). Aliquots having a concentration of 100 μg/mL of laminin are taken and stored at −20° C. The aliquots are diluted with PBS in the ratio 1:10 to 10 μg/mL of laminin and in each case 50 μL of the solution is pipeted into a well of the cell culture plate. The cell culture plates are incubated at 37° C. for at least two hours, the supernatant solution is aspirated and the wells are in each case washed twice with PBS. The coated cell culture plates are stored with supernatant PBS and this is removed only directly before the addition of the cells.
Preparation of the Cells:
The vertebral column is removed from decapitated rats and this is laid directly in a cold, i.e. ice bath-surrounded, HBSS buffer (Hank's buffered saline solution, Gibco Invitrogen GmbH, Karlsruhe, Germany) and 1% by volume of an AA solution (antibiotics/antimycotics solution, PAA, Pasching, Austria) is added. The vertebral column is cut in two, longitudinally, and the vertebral canal is removed together with fascias. Subsequently, the dorsal root ganglia (DRGs) are removed and in turn stored in cold HBSS buffer to which 1% by volume of an AA solution has been added. The DRGs completely freed from blood residues and spinal nerves are in each case transferred to 500 μL of cold collagenase Type 2 (PAA, Pasching, Austria) and incubated at 37° C. for 35 minutes. After the addition of 2.5% by volume of trypsin (PAA, Pasching, Austria), the preparation is incubated at 37° C. for a further 10 minutes. On completion of incubation, the enzyme solution is carefully pipeted off and 500 μL of complete medium are added to the DRGs in each case. The DRGs are in each case repeatedly suspended, drawn through No. 1, No. 12, and No. 16 needles by means of a syringe and transferred to 50 mL Falcon tubes and these are filled to 15 mL with complete medium. The contents of each Falcon tube are in each case filtered through a 70 μm Falcon filter insert and centrifuged at 1200 rpm and RT for 10 minutes. The resulting pellet is in each case taken up in 250 μL of complete medium and the cell count is determined.
The number of cells in the suspension is adjusted to 3×10^5 per mL and in each case 150 μL of this suspension are added to a well of the cell culture plates coated as described above. The plates are allowed to stand at 37° C., 5% by volume of CO2 and 95% relative humidity for two to three days in an incubator. […]

vanilloid receptor (VR1) = vanilloid receptor (VR1) (Homo sapiens (Human), UniProt Q8NER1); assay: FLIPR Ca2+ influx assay on CHO-K1 cells transfected with the human VR1 gene, capsaicin stimulus (Pharmacological Method II)
Chain of vanilloid receptor (VR1) (Q8NER1 whole entry): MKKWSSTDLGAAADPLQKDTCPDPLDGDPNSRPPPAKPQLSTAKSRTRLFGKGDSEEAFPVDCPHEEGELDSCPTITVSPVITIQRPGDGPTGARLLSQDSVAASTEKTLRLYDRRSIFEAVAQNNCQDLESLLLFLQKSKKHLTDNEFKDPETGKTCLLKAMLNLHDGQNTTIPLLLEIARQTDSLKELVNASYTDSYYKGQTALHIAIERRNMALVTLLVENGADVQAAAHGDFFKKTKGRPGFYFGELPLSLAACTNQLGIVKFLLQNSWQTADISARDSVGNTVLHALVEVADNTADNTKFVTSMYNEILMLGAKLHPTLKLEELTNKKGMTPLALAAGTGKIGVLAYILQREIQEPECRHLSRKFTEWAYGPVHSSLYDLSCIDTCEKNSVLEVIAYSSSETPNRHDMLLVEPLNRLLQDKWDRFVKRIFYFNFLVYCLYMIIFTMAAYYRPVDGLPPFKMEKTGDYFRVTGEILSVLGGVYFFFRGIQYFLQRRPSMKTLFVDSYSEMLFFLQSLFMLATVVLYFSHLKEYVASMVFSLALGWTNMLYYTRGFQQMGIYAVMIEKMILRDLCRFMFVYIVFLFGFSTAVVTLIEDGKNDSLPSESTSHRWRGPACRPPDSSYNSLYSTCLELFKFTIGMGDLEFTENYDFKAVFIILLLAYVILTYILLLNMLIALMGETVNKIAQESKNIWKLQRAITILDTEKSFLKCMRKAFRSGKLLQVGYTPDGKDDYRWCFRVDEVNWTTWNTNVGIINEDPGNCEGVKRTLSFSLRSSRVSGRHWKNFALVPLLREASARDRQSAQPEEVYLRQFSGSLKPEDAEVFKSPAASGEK
Description: Furthermore, preference may be given to compounds of the invention of the general formulas I, Ia, Ib and Ic, which in the FLIPR assay using CHO—K1 cells, which have been transfected with the human VR1 gene in a concentration below 2000 nM, preferably below 1000 nM, more preferably below 300 nM, even more preferably below 100 nM, still more preferably below 75 nM, very preferably below 50 nM and most preferably below 10 nM, cause a 50 percent displacement of capsaicin present in a concentration of 100 nM. In the FLIPR assay, the Ca^2+ influx is quantified with the aid of a Ca^2+-sensitive dye (type Fluo-4, Molecular Probes Europe BV, Leiden, Netherlands) in a fluorescent imaging plate reader (FLIPR, Molecular Devices, Sunnyvale, USA), as described below.
II. Functional Investigations on the Vanilloid Receptor (VR1)
The agonistic or antagonistic action of the substances to be examined on the vanilloid receptor (VR1) can alternatively be determined by the following assay. According to this assay the Ca^2+ influx through the canal is quantified with the aid of a Ca^2+-sensitive dye (type Fluo-4, Molecular Probes, Europe BV, Leiden, Netherlands) in a fluorescent imaging plate reader (FLIPR, Molecular Devices, Sunnyvale, USA).
Chinese hamster ovary cells (CHO—K1 cells, European Collection of Cell Cultures (ECACC) UK) are stably transfected with the VR1 gene. For carrying out functional investigations, these cells are plated on poly-D-lysine-coated, black 96-well plates with a clear bottom (BD Biosciences, Heidelberg, Germany) in a density of 25,000 cells/well. The cells are incubated overnight at 37° C. and 5% CO2 in a culture medium (Nutrient Mixture ‘am’s F12, 10% by volume of FCS (fetal calf serum), 18 μg/mL of L-proline). On the following day the cells are incubated with Fluo-4 (Fluo-4 2 μM, Pluronic F127 0.01 by volume, Molecular Probes in HBSS (Hank's buffered saline solution), Gibco Invitrogen GmbH, Karlsruhe, Germany) for 30 minutes at 37° C. The plates are then washed 3 times with HBSS buffer and, after another incubation over a period of 15 minutes at RT, are used in the FLIPR for Ca^2+ measurement. The Ca^2+-dependent fluorescence is measured prior to and following the addition of the substances being examined (wavelength λex=488 nm, λem=540 nm). Quantification is carried out by measuring the highest fluorescence intensity (PC, fluorescence counts) over time.
The FLIPR protocol consists of two substance additions. First of all, the substances to be tested (10 μM) are pipeted onto the cells and the Ca^2+ influx is compared with the control (capsaicin 10 μM) (percentage activation based on the Ca^2+ signal following addition of 10 μM of capsaicin). Following incubation over a period of 5 minutes 100 nM of capsaicin are applied and the influx of Ca^2+ is likewise determined.
Desensitizing agonists and antagonists lead to a suppression of the Ca^2+ influx. The percentage inhibition compared with the maximum inhibition achieved with 10 μM of capsaicin is calculated.
Based on the percentage displacement effected by different concentrations of the compounds of the general formula Ito be tested, IC50 inhibition concentrations that cause 50 percent displacement of capsaicin are calculated. Conversion using the Cheng Prusoff equation gave Ki values for the test substances (Cheng, Prusoff; Bioch. Pharmacol. 22, 3099-3108, 1973).
The affinity of the compounds of the invention for the vanilloid receptor 1 (VR1/TRPV1-Receptor) was detected as described above (Pharmacological Methods I and II respectively).

VR1/TRPV1 receptor = VR1/TRPV1 receptor (Homo sapiens (Human), UniProt Q8NER1); assay: Inhibition of human VR1/TRPV1 following pH-stimulus; conditions: for IC50 (Human) following pH-stimulus / IC50: ne = no effect, no reaction observed; for inhibition at 1 µM / inhibition at 5 µM / inhibition at 10 µM: read-out: inhibition (in percent) following pH-stimulus (Human)
Chain of VR1/TRPV1 receptor (Q8NER1 whole entry): as above

Row | Ki [1] [nM] | Ki (vanilloid receptor (VR1)) [nM] | IC50 (Human) following pH-stimulus (VR1/TRPV1 receptor) | IC50 (VR1/TRPV1 receptor) [nM] | inhibition at 1 µM (VR1/TRPV1 receptor) [%] | inhibition at 5 µM (VR1/TRPV1 receptor) [%] | inhibition at 10 µM (VR1/TRPV1 receptor) [%] | SMILES
1 | – | 0.1 | – | – | – | 4 | 38 | COc1cc(CC(=O)NCc2ccc(C(F)(F)F)nc2N2CCC(C)CC2)cc(Br)c1O [Example 21, 2-(3-Bromo-4-hydroxy-5-methoxyphenyl)-N-(4-methyl-6′-trifluoromethyl-3,4,5,6-tetrahydro-2H-[1,2′]bipyridinyl-3′-ylmethyl)acetamide]
2 | – | 0.7 | – | 158 | – | – | – | CC1CCN(c2nc(C(F)(F)F)ccc2CNC(=O)Cc2cc(Br)c(N)c(Br)c2)CC1 [Example 22, 2-(4-Amino-3,5-dibromophenyl)-N-(4-methyl-6′-trifluoromethyl-3,4,5,6-tetra-hydro-2H-[1,2′]bipyridinyl-3′-ylmethyl)acetamide]
3 | – | 0.3 | – | – | – | 8 | 35 | CC1CCN(c2nc(C(F)(F)F)ccc2CNC(=O)Cc2cc(Br)c(O)c(Br)c2)CC1 [Example 23, 2-(3,5-Dibromo-4-hydroxyphenyl)-N-(4-methyl-6′-trifluoromethyl-3,4,5,6-tetra-hydro-2H-[1,2′]bipyridinyl-3′-ylmethyl)acetamide]
4 | – | 4.8 | ne | – | – | – | – | C=CC(=O)Nc1c(F)cc(C(C)C(=O)NCc2ccc(C(F)(F)F)nc2N2CCC(C)CC2)cc1I (stereo not shown) [Example 34, N-(2-Fluoro-6-iodo-4-(1-((2-(4-methylpiperidin-1-yl)-6-(trifluoromethyl)pyridin-3-yl)methylamino)-1-oxopropan-2-yl)phenyl)acrylamide]

The next lines start with the compound.

Row | SMILES | Ki [1] [nM] | Ki (vanilloid receptor (VR1)) [nM] | IC50 (Human) following pH-stimulus (VR1/TRPV1 receptor) | IC50 (VR1/TRPV1 receptor) [nM] | inhibition at 1 µM (VR1/TRPV1 receptor) [%] | inhibition at 5 µM (VR1/TRPV1 receptor) [%] | inhibition at 10 µM (VR1/TRPV1 receptor) [%]
5 | CC1CCN(c2nc(C(F)(F)F)ccc2CNC(=O)Cc2cc(Br)cc(Br)c2)CC1 [Example 2, 2-(3,5-Dibromophenyl)-N-((2-(4-methylpiperidin-1-yl)-6-(trifluoromethyl)pyridin-3-yl)methyl)acetamide] | 60.1 | 40.6 | ne | – | – | – | –
6 | COc1cc(CC(=O)NCc2ccc(C(F)(F)F)nc2N2CCC(C)CC2)cc(Br)c1N [Example 3, 2-(4-Amino-3-bromo-5-methoxyphenyl)-N-(4-methyl-6′-trifluoromethyl-3,4,5,6-tetrahydro-2H-[1,2′]bipyridinyl-3′-ylmethyl)acetamide] | 16.7 | 4.4 | – | 253 | – | – | –
7 | CC1CCN(c2nc(C(F)(F)F)ccc2CNC(=O)Cc2cccc(F)c2)CC1 [Example 4, 2-(3-Fluorophenyl)-N-(4-methyl-6′-trifluoromethyl-3,4,5,6-tetrahydro-2H-[1,2′]bipyridinyl-3′-ylmethyl)acetamide] | 80 | 34 | ne | – | – | – | –
8 | CC1CCN(c2nc(C(F)(F)F)ccc2CNC(=O)Cc2c(F)cccc2F)CC1 [Example 6, 2-(2,6-Difluorophenyl)-N-(4-methyl-6′-trifluoromethyl-3,4,5,6-tetrahydro-2H-[1,2′]bipyridinyl-3′-ylmethyl)acetamide] | 118 | 38 | ne | – | – | – | –
9 | CC1CCN(c2nc(C(F)(F)F)ccc2CNC(=O)Cc2cc(F)ccc2F)CC1 [Example 7, 2-(2,5-Difluorophenyl)-N-(4-methyl-6′-trifluoromethyl-3,4,5,6-tetrahydro-2H-[1,2′]bipyridinyl-3′-ylmethyl)acetamide] | 63 | 30 | ne | – | – | – | –
10 | CC1CCN(c2nc(C(F)(F)F)ccc2CNC(=O)C(C)c2cc(F)cc(F)c2)CC1 (stereo not shown) [Example 10, 2-(3,5-Difluorophenyl)-N-(4-methyl-6′-trifluoromethyl-3,4,5,6-tetrahydro-2H-[1,2′]bipyridinyl-3′-ylmethyl)propionamide] | – | 24.7 | ne | – | – | – | –
11 | CC(=O)Nc1ccc(C(C)C(=O)NCc2ccc(C(F)(F)F)nc2N2CCC(C)CC2)cc1F (stereo not shown) [Example 18, 2-(4-Acetamido-3-fluorophenyl)-N-((2-(4-methylpiperidin-1-yl)-6-(trifluoromethyl)pyridin-3-yl)methyl)propanamide] | – | 25 | ne | – | – | – | –
12 | CC1CCN(c2nc(C(F)(F)F)ccc2CNC(=O)C(C)c2cc(Br)c(O)c(Br)c2)CC1 (stereo not shown) [Example 19, 2-(3,5-Dibromo-4-hydroxyphenyl)-N-(4-methyl-6′-trifluoromethyl-3,4,5,6-tetra-hydro-2H-[1,2′]bipyridinyl-3′-ylmethyl)propionamide] | – | 1.1 | – | – | 0 | 20 | 31
13 | CC1CCN(c2nc(C(F)(F)F)ccc2CNC(=O)C(C)c2cc(Br)c(N)c(Br)c2)CC1 (stereo not shown) [Example 20, 2-(4-Amino-3,5-dibromophenyl)-N-(4-methyl-6′-trifluoromethyl-3,4,5,6-tetra-hydro-2H-[1,2′]bipyridinyl-3′-ylmethyl)propionamide] | – | 0.9 | – | – | 0 | 10 | 27
